In publication PMC12177060, “Blocking XIAP:CASP7-p19 selectively induces apoptosis of CASP3/DR malignancies by a novel reversible small molecule” (Cell Death & Disease, 2025) one finds Kd data, which are given here for one compound.

This assay concerns the target T1, CASP7 (Homo sapiens, UniProt P55210).
T1 construct: human CASP7 cDNA in pET28a, C-terminal 6-His tag, E. coli BL21(DE3), Ni-NTA purified; active processed form, MW 70 kDa hetero-tetramer (p19/p12)
T1 sequence (P55210 24-198): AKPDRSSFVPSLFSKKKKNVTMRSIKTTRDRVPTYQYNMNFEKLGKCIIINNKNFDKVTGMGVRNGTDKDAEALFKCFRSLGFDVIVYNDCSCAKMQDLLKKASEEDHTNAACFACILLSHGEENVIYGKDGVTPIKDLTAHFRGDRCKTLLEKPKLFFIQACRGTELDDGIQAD
T1 sequence (P55210 207-303): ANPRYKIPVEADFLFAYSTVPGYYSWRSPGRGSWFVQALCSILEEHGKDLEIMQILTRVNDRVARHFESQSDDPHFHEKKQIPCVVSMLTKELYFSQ
Description: SPR (BIAcore), His-tagged CASP7 immobilised on NiNTA chip. As to conditions: allosteric site near Cys246/Asp93 (proposed), reversible; 2.5, 5 or 10 μM injected. The class given is binding.

As usually defined, the Kd is the free concentration of one partner at which half of the binding sites on the other are occupied at equilibrium, for simple one-to-one binding. Take `COc1cc2c(-c3ccc(O)cc3)nc3c(c(C)nn3-c3ccccc3)c2cc1OC` [compound 643943, 643943]: the dissociation constant Kd turned out to be 3.1 µM.
